Data published in PubChem BioAssay (NCI).
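Each compound was tested at five concentrations against cells in 96-well plates for 48 hours. The concentration for 50% growth inhibition is given as GI50. TGI: concentration producing complete growth inhibition.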

What was measured:
Assay in all cases: DTP human tumour cell line panel, 48 h
[1] = tested on: SK-OV-3 ovarian
[2] = tested on: SK-MEL-28 melanoma
[3] = tested on: U251 CNS
[4] = tested on: RXF 393 renal
[5] = tested on: HT29 colon
[6] = tested on: HCT-15 colon
[7] = tested on: MCF7 breast
[8] = tested on: HCT-116 colon
[9] = tested on: SF-268 CNS
[10] = tested on: HS 578T breast
[11] = tested on: HL-60(TB) leukemia
[12] = tested on: UACC-62 melanoma
[13] = tested on: A498 renal
[14] = tested on: HCC-2998 colon
[15] = tested on: IGROV1 ovarian
[16] = tested on: NCI-H23 lung
[17] = tested on: SK-MEL-2 melanoma
[18] = tested on: EKVX NSCLC
[19] = tested on: NCI-H522 lung
[20] = tested on: MALME-3M melanoma
[21] = tested on: SK-MEL-5 melanoma
[22] = tested on: OVCAR-3 ovarian
[23] = tested on: HOP-92 NSCLC
[24] = tested on: BT-549 breast
[25] = tested on: ACHN renal
[26] = tested on: DU-145 prostate
[27] = tested on: K-562 leukemia
[28] = tested on: SF-539 CNS
[29] = tested on: CAKI-1 renal
[30] = tested on: T-47D breast
[31] = tested on: UO-31 renal
[32] = tested on: MDA-MB-435
[33] = tested on: CCRF-CEM leukemia
[34] = tested on: PC-3 prostate
[35] = tested on: 786-0 renal
[36] = tested on: NCI-H460 lung
[37] = tested on: MDA-MB-231 breast
[38] = tested on: OVCAR-5 ovarian
[39] = tested on: SW-620 colon
[40] = tested on: SN12C renal
[41] = tested on: A549 NSCLC
[42] = tested on: SR leukemia
[43] = tested on: NCI/ADR-RES ovarian
[44] = tested on: SNB-19 CNS
[45] = tested on: COLO 205 colon
[46] = tested on: KM12 colon
[47] = tested on: SF-295 CNS
[48] = tested on: SNB-75 CNS
[49] = tested on: MOLT-4 leukemia
[50] = tested on: TK-10 renal
[51] = tested on: HOP-62 NSCLC
[52] = tested on: NCI-H226 lung
[53] = tested on: RPMI-8226 leukemia
[54] = tested on: OVCAR-8 ovarian
[55] = tested on: UACC-257 melanoma
[56] = tested on: LOX IMVI melanoma
[57] = tested on: M14 melanoma
[58] = tested on: OVCAR-4 ovarian

SMILES: CC(C)=CC(=O)OCC(=O)O[C@@H]1C[C@]2(C(C)C)O[C@@]1(C)[C@@H]1CC[C@@H](C)[C@H]1[C@@H]2OC(=O)/C=C/c1ccccc1
- GI50 [1]: > 55.7 µM
- TGI [1]: > 100 µM
- GI50 [2]: > 63.3 µM
- TGI [2]: > 100 µM
- GI50 [3]: > 56.4 µM
- TGI [3]: > 100 µM
- GI50 [4]: 0.382 µM
- TGI [4]: 11.7 µM
- GI50 [5]: > 56.4 µM
- TGI [5]: > 100 µM
- GI50 [6]: 42.1 µM
- TGI [6]: > 100 µM
- GI50 [7]: 35.3 µM
- TGI [7]: > 100 µM
- GI50 [8]: 11 µM
- TGI [8]: > 100 µM
- GI50 [9]: > 38.1 µM
- TGI [9]: > 100 µM
- GI50 [10]: 0.064 µM
- TGI [10]: 0.548 µM
- GI50 [11]: 11.6 µM
- TGI [11]: > 69.4 µM
- GI50 [12]: 24.4 µM
- TGI [12]: > 100 µM
- GI50 [13]: 0.179 µM
- TGI [13]: 0.679 µM
- GI50 [14]: > 57.2 µM
- TGI [14]: > 100 µM
- GI50 [15]: > 61.8 µM
- TGI [15]: > 100 µM
- GI50 [16]: > 50.4 µM
- TGI [16]: > 96.4 µM
- GI50 [17]: > 56.4 µM
- TGI [17]: > 85.9 µM
- GI50 [18]: > 51 µM
- TGI [18]: > 100 µM
- GI50 [19]: > 62.1 µM
- TGI [19]: > 100 µM
- GI50 [20]: > 55.5 µM
- TGI [20]: > 100 µM
- GI50 [21]: 49.2 µM
- TGI [21]: > 66.1 µM
- GI50 [22]: > 42.3 µM
- TGI [22]: > 100 µM
- GI50 [23]: 5.18 µM
- TGI [23]: > 75.4 µM
- GI50 [24]: 2.11 µM
- TGI [24]: > 73.2 µM
- GI50 [25]: 0.3 µM
- TGI [25]: > 19.6 µM
- GI50 [26]: > 69.2 µM
- TGI [26]: > 100 µM
- GI50 [27]: 7.75 µM
- TGI [27]: > 100 µM
- GI50 [28]: > 72.7 µM
- TGI [28]: > 100 µM
- GI50 [29]: 0.346 µM
- GI50 [30]: 18.9 µM
- TGI [30]: > 100 µM
- GI50 [31]: 0.239 µM
- TGI [31]: 2.36 µM
- GI50 [32]: > 67.9 µM
- TGI [32]: > 100 µM
- GI50 [33]: 29.6 µM
- TGI [33]: > 100 µM
- GI50 [34]: 6.01 µM
- TGI [34]: > 100 µM
- GI50 [35]: 7.21 µM
- TGI [35]: > 100 µM
- GI50 [36]: > 63 µM
- TGI [36]: > 100 µM
- GI50 [37]: > 51.7 µM
- TGI [37]: > 85.2 µM
- GI50 [38]: > 62.7 µM
- TGI [38]: > 100 µM
- GI50 [39]: > 60.4 µM
- TGI [39]: > 100 µM
- GI50 [40]: 5.9 µM
- TGI [40]: > 93.2 µM
- GI50 [41]: > 57.2 µM
- TGI [41]: > 100 µM
- GI50 [42]: 11.1 µM
- TGI [42]: > 100 µM
- GI50 [43]: 2.25 µM
- TGI [43]: > 85.5 µM
- GI50 [44]: > 58.5 µM
- TGI [44]: > 100 µM
- GI50 [45]: > 48.5 µM
- TGI [45]: > 65.3 µM
- GI50 [46]: > 56 µM
- TGI [46]: > 100 µM
- GI50 [47]: > 48.3 µM
- TGI [47]: > 100 µM
- GI50 [48]: 34.2 µM
- TGI [48]: > 87.5 µM
- GI50 [49]: 43.4 µM
- TGI [49]: > 100 µM
- GI50 [50]: > 70.4 µM
- TGI [50]: > 100 µM
- GI50 [51]: > 62.3 µM
- TGI [51]: > 100 µM
- GI50 [52]: 9.47 µM
- TGI [52]: > 94.1 µM
- GI50 [53]: 7.89 µM
- TGI [53]: > 100 µM
- GI50 [54]: 0.912 µM
- TGI [54]: > 72.9 µM
- GI50 [55]: > 47.5 µM
- TGI [55]: > 94.3 µM
- GI50 [56]: 33.4 µM
- TGI [56]: > 70.5 µM
- GI50 [57]: > 57.8 µM
- TGI [57]: > 100 µM
- GI50 [58]: 30.2 µM
- TGI [58]: > 100 µM

SMILES: CC(=O)OCC1OC(OC2=C(CC=C(C)C)C(=O)c3ccccc3C2=O)C(OC(C)=O)C(OC(C)=O)C1OC(C)=O (stereo unspecified)
- GI50 [1]: 12.9 µM
- TGI [1]: 25.9 µM
- GI50 [2]: 5.22 µM
- TGI [2]: 16.9 µM
- GI50 [3]: 2.92 µM
- TGI [3]: 11.5 µM
- GI50 [4]: 3.76 µM
- TGI [4]: 8.32 µM
- GI50 [5]: 15.3 µM
- TGI [5]: 36.7 µM
- GI50 [6]: 3.91 µM
- TGI [6]: 18.1 µM
- GI50 [7]: 2.06 µM
- TGI [7]: 4.73 µM
- GI50 [8]: 1.6 µM
- TGI [8]: 3.05 µM
- GI50 [9]: 4.23 µM
- TGI [9]: 15.5 µM
- GI50 [10]: 5.21 µM
- TGI [10]: > 32.6 µM
- GI50 [11]: 2.91 µM
- TGI [11]: 6.62 µM
- GI50 [12]: 2.45 µM
- TGI [12]: 7.15 µM
- GI50 [13]: > 33.6 µM
- TGI [13]: > 56.9 µM
- GI50 [14]: 8.05 µM
- TGI [14]: 20.5 µM
- GI50 [15]: 3.47 µM
- TGI [15]: 8.21 µM
- GI50 [16]: 4.13 µM
- TGI [16]: 16.9 µM
- GI50 [17]: 2.46 µM
- TGI [17]: 5.67 µM
- GI50 [18]: 2.81 µM
- TGI [18]: 11.6 µM
- GI50 [19]: 1.88 µM
- TGI [19]: 4.85 µM
- GI50 [20]: 4.96 µM
- TGI [20]: 19.6 µM
- GI50 [21]: 2.24 µM
- TGI [21]: 5.15 µM
- GI50 [22]: 1.93 µM
- TGI [22]: 3.58 µM
- GI50 [23]: 1.52 µM
- TGI [23]: 3.77 µM
- GI50 [24]: 2.25 µM
- TGI [24]: 6.95 µM
- GI50 [25]: 3.16 µM
- TGI [25]: 10.1 µM
- GI50 [26]: 10.9 µM
- TGI [26]: 22.9 µM
- GI50 [27]: 2.72 µM
- TGI [27]: > 30.4 µM
- GI50 [28]: 2.84 µM
- TGI [28]: 9.9 µM
- GI50 [29]: 6.55 µM
- TGI [29]: 17.7 µM
- GI50 [30]: 1.93 µM
- TGI [30]: 4.24 µM
- GI50 [31]: 2.68 µM
- TGI [31]: 10.7 µM
- GI50 [32]: 2.9 µM
- TGI [32]: 9.09 µM
- GI50 [33]: 3.83 µM
- TGI [33]: > 100 µM
- GI50 [34]: 1.97 µM
- TGI [34]: 6.08 µM
- GI50 [35]: 14.1 µM
- TGI [35]: 27.3 µM
- GI50 [36]: 4.12 µM
- TGI [36]: 15.5 µM
- GI50 [37]: 2.63 µM
- TGI [37]: 8.41 µM
- GI50 [38]: 4.57 µM
- TGI [38]: 16.2 µM
- GI50 [39]: 2.78 µM
- TGI [39]: 9.18 µM
- GI50 [40]: 7.01 µM
- TGI [40]: 23.9 µM
- GI50 [41]: 10.4 µM
- TGI [41]: 40 µM
- GI50 [42]: 3.55 µM
- TGI [42]: 51.1 µM
- GI50 [43]: 3.07 µM
- TGI [43]: 10.2 µM
- GI50 [44]: 6.28 µM
- TGI [44]: 16.2 µM
- GI50 [45]: 11.5 µM
- TGI [45]: 24.2 µM
- GI50 [46]: 2.26 µM
- TGI [46]: 4.89 µM
- GI50 [47]: 3.67 µM
- TGI [47]: 12.7 µM
- GI50 [48]: 3.35 µM
- TGI [48]: 11.4 µM
- GI50 [49]: 2.5 µM
- TGI [49]: 6.59 µM
- GI50 [50]: 15.1 µM
- TGI [50]: 29.8 µM
- GI50 [51]: 18 µM
- TGI [51]: 33.6 µM
- GI50 [52]: 5.58 µM
- TGI [52]: 28.3 µM
- GI50 [53]: 2.03 µM
- TGI [53]: 5.25 µM
- GI50 [54]: 3.23 µM
- TGI [54]: 11.9 µM
- GI50 [55]: 3.75 µM
- TGI [55]: 10.3 µM
- GI50 [56]: 2.58 µM
- TGI [56]: 8.01 µM
- GI50 [57]: 5.67 µM
- TGI [57]: 18.2 µM
- GI50 [58]: 2.31 µM
- TGI [58]: 6.7 µM
